Data from patent publication US8324265B2, “Heterocyclic compounds having type I 11β hydroxysteroid dehydrogenase inhibitory activity” (Shionogi & Co., Ltd., priority 2005, dated 2012).

Key:
[1] = target: recombinant human 11β-HSD1 (Homo sapiens, UniProt P28845); test: Enzyme activity assay on human 11β-HSD1 (HTRF); type: biochemical; conditions: recombinant human 11β-HSD1, 5μM cortisone as substrate, 2 hours at 37° C.; read-out: humanIC50
Experimental: Evaluation of 11β-HSD1 Inhibitors (Enzyme Activity Assay on Human 11β-HSD1)
Enzymatic activity for human 11β-HSD1 was determined in a 10 μl final volume of assay mixture containing 50 mM sodium phosphate buffer (pH 7.6), 1 mg/ml bovine serum albumin, 0.42 mg/ml NADPH, 1.26 mg/ml glucose-6-phosphate, glucose-6-phosphate dehydrogenase, test compound, recombinant human 11β-HSD1, and 5μM cortisone as substrate. The reaction was started with the addition of cortisone. After incubation for 2 hours at 37° C., 5μl of europium cryptate-labelled anti-cortisol antibody and 5μl of XL665-labeled cortisol were added. After further incubation for 2 hours at room temperature, the homogeneous time-resolved fluorescence (HTRF) signal was measured. The cortisol production was quantitated by a standard curve generated with several known concentrations of cortisol in each assay.
(§1) The amount of cortisol production without compounds was served as control, and the percent inhibition by test compound at each concentration was calculated. The IC50 value of the compound for 11β-HSD1 was obtained using the inhibition curve generated by plotting the percent inhibition versus the concentration of test compound.

[2] = target: recombinant mouse 11β-HSD1 (Mus musculus, UniProt P50172); test: Enzyme activity assay on mouse 11β-HSD1 (HTRF); type: biochemical; conditions: recombinant mouse 11β-HSD1, 2μM 11-dehydrocorticosterone as substrate, 2 hours at 37° C.; read-out: mouseIC50
Chain of recombinant mouse 11β-HSD1 (P50172 whole entry): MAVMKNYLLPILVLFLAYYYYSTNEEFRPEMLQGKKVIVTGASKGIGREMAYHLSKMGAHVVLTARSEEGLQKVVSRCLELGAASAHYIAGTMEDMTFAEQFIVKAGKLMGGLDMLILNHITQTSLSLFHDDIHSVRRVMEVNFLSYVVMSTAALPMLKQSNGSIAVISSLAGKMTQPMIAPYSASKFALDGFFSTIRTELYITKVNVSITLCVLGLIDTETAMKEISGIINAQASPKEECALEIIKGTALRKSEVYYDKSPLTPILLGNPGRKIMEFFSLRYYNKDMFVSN
Experimental: Evaluation of 11β-HSD1 Inhibitors (Enzyme Activity Assay on Mouse 11β-HSD1)
Enzymatic activity for mouse 11β-HSD1 activity was determined in a 10μl final volume of assay mixture containing 50 mM sodium phosphate buffer (pH 7.6), 1 mg/ml bovine serum albumin, 0.42 mg/ml NADPH, 1.26 mg/ml glucose-6-phosphate, glucose-6-phosphate dehydrogenase, test compound, recombinant mouse 11β-HSD1, and 2μM 11-dehydrocorticosterone as substrate. The reaction was started with the addition of 11-dehydrocorticosterone. After incubation for 2 hours at 37° C., 5μl of europium cryptate-labelled anti-cortisol antibody and 5μl of XL665-labeled cortisol were added. After further incubation for 2 hours at room temperature, the HTRF signal was measured. The corticosterone production was quantitated by a standard curve generated with several known concentrations of corticosterone in each assay.
as §1, with “corticosterone” for “cortisol”, “by” for “by test”

Chain of recombinant human 11β-HSD1 (P28845 whole entry): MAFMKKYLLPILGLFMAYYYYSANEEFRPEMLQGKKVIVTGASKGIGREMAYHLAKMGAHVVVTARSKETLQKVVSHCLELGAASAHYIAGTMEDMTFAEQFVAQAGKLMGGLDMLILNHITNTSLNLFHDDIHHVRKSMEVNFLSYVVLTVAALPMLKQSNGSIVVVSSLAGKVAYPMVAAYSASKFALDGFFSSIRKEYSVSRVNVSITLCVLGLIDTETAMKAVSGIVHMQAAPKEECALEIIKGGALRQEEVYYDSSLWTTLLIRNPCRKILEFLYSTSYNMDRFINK

SMILES | IC50 [1] | IC50 [2] | melting point
Cn1ncc(C(=O)NC23CC4CC(CC(C4)C2)C3)c1Sc1ccccc1 [Compound A-2] | 270 nM | 11000 nM | –
Cn1ncc(C(=O)NC23CC4CC(CC(C4)C2)C3)c1Oc1ccccc1 [Compound A-3] | 300 nM | 24100 nM | –
Cn1ncc(C(=O)NC2C3CC4CC(C3)CC2C4)c1OCc1ccccc1 (centres unmarked) [Compound A-4] | 37 nM | 1600 nM | –
Cn1ncc(C(=O)NC2C3CC4CC(C3)CC2C4)c1OCCc1ccsc1 (centres unmarked) [Compound A-64] | – | – | 68 to 69 °C

Other lines, results leading:

IC50 [1] | IC50 [2] | melting point | SMILES
190 nM | 5900 nM | – | Cn1ncc(C(=O)NC23CC4CC(CC(C4)C2)C3)c1OCc1ccccc1 [Compound A-1]
710 nM | > 30000 nM | – | Cn1cc(C(=O)NC2C3CC4CC(C3)CC2C4)c(OCc2ccccc2)n1 (centres unmarked) [Compound A-5]
8.3 nM | 940 nM | – | Cn1ncc(C(=O)NC2C3CC4CC(C3)CC2C4)c1OC1CCCCC1 (centres unmarked) [Compound A-6]
18 nM | 710 nM | – | Cn1ncc(C(=O)NC2C3CC4CC(C3)CC2C4)c1OCCc1ccccc1 (centres unmarked) [Compound A-7]
– | – | 84 to 85 °C | Cn1ncc(C(=O)NC2C3CC4CC(C3)CC2C4)c1OCC1CCC1 (centres unmarked) [Compound A-63]
– | – | 89 to 90 °C | CCC(CC)COc1c(C(=O)NC2C3CC4CC(C3)CC2C4)cnn1C (centres unmarked) [Compound A-65]
